Data: ChEMBL document CHEMBL1153384, “Synthesis, antimalarial activity, and preclinical pharmacology of a novel series of 4'-fluoro and 4'-chloro analogues of amodiaquine. Identification of a suitable "back-up" compound for N-tert-butyl isoquine” (J Med Chem, 2009)

Columns and labels:
[1] = system: Plasmodium falciparum; assay: Antimalarial activity against chloroquine-sensitive Plasmodium falciparum 3D7; type: functional, organism-based
[2] = system: Plasmodium falciparum; assay: Antimalarial activity against chloroquine-sensitive Plasmodium falciparum HB3; type: functional, organism-based
[3] = system: Plasmodium falciparum; assay: Antimalarial activity against […] Plasmodium falciparum PH3; type: functional, organism-based
[4] = system: Plasmodium falciparum; assay: Antimalarial activity against chloroquine-resistant Plasmodium falciparum TM4; type: functional, organism-based
[5] = system: Plasmodium falciparum; assay: Antimalarial activity against […] Plasmodium falciparum Dd2; type: functional, organism-based
[6] = (§1) Partition coefficient, log P of the compound; type: physicochemical; settings: octanol/water
[7] = Biodistribution in cannulated Wistar rat bile assessed as [3H]labeled drug level at 54 umol/kg, iv after 5 hrs; type: ADME, organism-based; settings: in vivo
[8] = Biodistribution in cannulated Wistar rat urine assessed as [3H]labeled drug level at 54 umol/kg, iv after 5 hrs; type: ADME, organism-based; settings: in vivo
[9] = system: Zone of skin; assay: Biodistribution in cannulated Wistar rat skin assessed as [3H]labeled drug level at 54 umol/kg, iv after 5 hrs; type: ADME, organism-based; settings: in vivo
[10] = Drug metabolism in cannulated Wistar rat assessed as biliary excretion of [3H]labeled drug level at 54 umol/kg, iv after 5 hrs; type: ADME, organism-based, Bile; settings: in vivo
[11] = system: Kidney; assay: Biodistribution in cannulated Wistar rat kidney assessed as [3H]labeled drug level at 54 umol/kg, iv after 5 hrs; type: ADME, organism-based; settings: in vivo
[12] = as §1; type: physicochemical; settings: octanol/water; remark: listed apart in the source
[13] = system: Rattus norvegicus; assay: Drug elimination in Wistar rat assessed as [3H]labeled drug level at 54 umol/kg, iv after 24 hrs; type: ADME, organism-based; settings: in vivo
[14] = system: Kidney; assay: Biodistribution in Wistar rat kidney assessed as [3H]labeled drug level at 54 umol/kg, iv after 24 hrs; type: ADME, organism-based; settings: in vivo
[15] = system: Liver; assay: Biodistribution in Wistar rat liver assessed as [3H]labeled drug level at 54 umol/kg, iv after 24 hrs; type: ADME, organism-based; settings: in vivo
[16] = system: Lung; assay: Biodistribution in Wistar rat lung assessed as [3H]labeled drug level at 54 umol/kg, iv after 24 hrs; type: ADME, organism-based; settings: in vivo
[17] = system: Rattus norvegicus; assay: Biodistribution in Wistar rat assessed as remaining [3H]labeled drug level at 54 umol/kg, iv after 24 hrs; type: ADME, organism-based; settings: in vivo
[18] = system: Rattus norvegicus; assay: Biodistribution in Wistar rat assessed as remaining [3H]labeled drug level at 54 umol/kg, iv after 5 hrs; type: ADME, organism-based; settings: in vivo
[19] = system: Rattus norvegicus; assay: Biodistribution in Wistar rat assessed as remaining [3H]labeled drug level at 54 umol/kg, iv after 48 hrs; type: ADME, organism-based; settings: in vivo
[20] = system: Rattus norvegicus; assay: Biodistribution in Wistar rat assessed as remaining [3H]labeled drug level at 54 umol/kg, iv after 168 hrs; type: ADME, organism-based; settings: in vivo
[21] = system: Rattus norvegicus; assay: Metabolic stability in Wistar rat assessed as 2-[5-(7-Chloro-quinolin-4-ylamino)-2-fluoro-benzylamino]-2-methyl-propionic acids level at 54 umol/kg, iv administered as [3H]labeled drug after 5 hrs; type: ADME, organism-based; settings: in vivo
[22] = system: Rattus norvegicus; assay: Metabolic stability in Wistar rat assessed as [3-(tert-Butylamino-methyl)-4-fluoro-phenyl]-(7-chloro-1-oxy-quinolin-4-yl)-amine level at 54 umol/kg, iv administered as [3H]labeled drug after 5 hrs; type: ADME, organism-based; settings: in vivo
[23] = Clearance in iv dosed rat; type: ADME, organism-based; settings: in vivo
[24] = Oral bioavailability in mouse; type: ADME, organism-based; settings: in vivo
[25] = Oral bioavailability in rat; type: ADME, organism-based; settings: in vivo
[26] = Elimination half life in mouse at 10 mg/kg, po administered as single dose; type: ADME, organism-based; parameters: dose 10 mg/kg, route oral; settings: in vivo, read-out: beta t1/2 (converted)
[27] = target: T1, Cytochrome P450 1A2 (Homo sapiens, UniProt P05177); assay: Inhibition of human CYP1A2; type: ADME
T1 sequence (P05177 whole entry): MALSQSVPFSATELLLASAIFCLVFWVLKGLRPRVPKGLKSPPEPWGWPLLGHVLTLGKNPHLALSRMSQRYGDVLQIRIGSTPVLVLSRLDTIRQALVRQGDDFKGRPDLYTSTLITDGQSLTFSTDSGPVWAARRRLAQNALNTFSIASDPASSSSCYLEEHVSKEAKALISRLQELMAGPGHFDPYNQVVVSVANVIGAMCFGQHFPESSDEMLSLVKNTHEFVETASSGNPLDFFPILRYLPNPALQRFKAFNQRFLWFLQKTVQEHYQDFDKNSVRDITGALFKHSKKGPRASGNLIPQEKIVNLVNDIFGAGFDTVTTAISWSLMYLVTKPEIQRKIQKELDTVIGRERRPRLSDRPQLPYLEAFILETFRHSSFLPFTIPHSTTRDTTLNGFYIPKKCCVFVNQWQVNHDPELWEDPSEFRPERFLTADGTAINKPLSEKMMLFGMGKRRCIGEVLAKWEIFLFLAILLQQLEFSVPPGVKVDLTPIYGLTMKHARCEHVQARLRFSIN

[28] = target: Cytochrome P450 2D6 (Homo sapiens, UniProt P10635); assay: Inhibition of human CYP2D6; type: ADME
[29] = target: Cytochrome P450 2C9 (Homo sapiens, UniProt P11712); assay: Inhibition of human CYP2C9; type: ADME
[30] = target: Cytochrome P450 2C19 (Homo sapiens, UniProt P33261); assay: Inhibition of human CYP2C19; type: ADME
[31] = Toxicity against Wistar rat hepatocytes after 6 hrs by trypan blue exclusion method; type: cell-based, Hepatocyte; settings: read-out: TC50
[32] = Toxicity in po dosed mouse assessed as drug level causing no observed adverse effects administered as single dose; type: organism-based; settings: in vivo, read-out: Activity
[33] = Toxicity in po dosed mouse assessed as drug level causing no observed adverse effects administered as once daily for 4 days; type: organism-based; settings: in vivo, read-out: Activity
[34] = system: Mus musculus; assay: Toxicity in po dosed mouse assessed as induction of hepatotoxicity at drug dose above no observed adverse effects level; type: organism-based; settings: in vivo
[35] = system: Mus musculus; assay: Toxicity in po dosed mouse assessed as induction of hematological toxicity at drug dose above no observed adverse effects level; type: organism-based; settings: in vivo
[36] = Distribution coefficient, log D at pH 7.4; settings: octanol/water
[37] = system: Plasmodium falciparum; assay: Antimalarial activity against chloroquine-resistant Plasmodium falciparum V1/S; type: functional, organism-based; settings: V1S
[38] = system: Plasmodium falciparum; assay: Antimalarial activity against chloroquine-resistant Plasmodium falciparum J164; type: functional, organism-based
[39] = system: Plasmodium berghei; assay: Antimalarial activity as reduced parasitaemia against Plasmodium berghei ANKA infected CD1 mice (Mus musculus) perorally dosed daily over 4 days; type: functional; settings: po, 96 h
[40] = system: Heme; assay: Binding affinity to heme assessed as binding constant for stepwise binding of 2 equivalent of drug to 1 molecule of heme in presence of 40% DMSO by UV-visible spectroscopy
[41] = system: Heme; assay: Binding affinity to heme assessed as binding constant for stepwise binding of 2 molecules of heme to 1 equivalent of drug in presence of 40% DMSO by UV-visible spectroscopy
[42] = target: Cytochrome P450 3A4 (Homo sapiens, UniProt P08684); assay: Inhibition of human CYP3A4 using DEF substrate
[43] = system: Plasmodium falciparum; assay: Antimalarial activity against chloroquine-resistant Plasmodium falciparum K1
[44] = system: Plasmodium yoelii; assay: Antimalarial activity as minimal concentration for parasite elimination at day 23 against Plasmodium yoelii 17X intravenously inoculated CD1 mice (Mus musculus) dosed 1 hrs post infection then daily for 4 days

Sequence of Cytochrome P450 2C19 (P33261 whole entry): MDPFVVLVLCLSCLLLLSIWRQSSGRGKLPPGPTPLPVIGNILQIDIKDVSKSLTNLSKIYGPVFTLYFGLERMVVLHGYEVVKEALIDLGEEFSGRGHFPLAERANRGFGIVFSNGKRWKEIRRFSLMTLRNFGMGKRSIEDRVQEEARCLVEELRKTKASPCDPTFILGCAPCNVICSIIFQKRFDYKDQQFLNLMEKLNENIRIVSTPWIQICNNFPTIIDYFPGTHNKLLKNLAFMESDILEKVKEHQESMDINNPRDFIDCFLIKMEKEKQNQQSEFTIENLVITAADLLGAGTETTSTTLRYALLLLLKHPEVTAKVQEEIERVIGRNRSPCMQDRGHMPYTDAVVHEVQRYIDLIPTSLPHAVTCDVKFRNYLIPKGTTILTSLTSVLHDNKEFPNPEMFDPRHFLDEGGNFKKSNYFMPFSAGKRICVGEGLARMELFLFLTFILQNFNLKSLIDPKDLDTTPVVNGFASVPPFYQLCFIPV
Sequence of Cytochrome P450 2C9 (P11712 whole entry): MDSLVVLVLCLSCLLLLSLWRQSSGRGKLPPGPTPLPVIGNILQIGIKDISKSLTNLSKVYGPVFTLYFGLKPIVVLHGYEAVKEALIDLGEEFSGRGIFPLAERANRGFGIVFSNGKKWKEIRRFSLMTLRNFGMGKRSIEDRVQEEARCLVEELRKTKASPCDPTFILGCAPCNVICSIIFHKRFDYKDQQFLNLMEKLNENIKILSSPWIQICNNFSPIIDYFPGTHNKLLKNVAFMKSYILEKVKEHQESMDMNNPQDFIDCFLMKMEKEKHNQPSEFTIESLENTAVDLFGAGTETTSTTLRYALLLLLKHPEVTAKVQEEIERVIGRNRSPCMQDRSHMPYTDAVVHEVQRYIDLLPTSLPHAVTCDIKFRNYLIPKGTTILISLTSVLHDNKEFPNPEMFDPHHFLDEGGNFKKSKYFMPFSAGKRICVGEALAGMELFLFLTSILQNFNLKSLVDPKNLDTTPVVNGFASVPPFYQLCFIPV
Sequence of Cytochrome P450 2D6 (P10635 whole entry): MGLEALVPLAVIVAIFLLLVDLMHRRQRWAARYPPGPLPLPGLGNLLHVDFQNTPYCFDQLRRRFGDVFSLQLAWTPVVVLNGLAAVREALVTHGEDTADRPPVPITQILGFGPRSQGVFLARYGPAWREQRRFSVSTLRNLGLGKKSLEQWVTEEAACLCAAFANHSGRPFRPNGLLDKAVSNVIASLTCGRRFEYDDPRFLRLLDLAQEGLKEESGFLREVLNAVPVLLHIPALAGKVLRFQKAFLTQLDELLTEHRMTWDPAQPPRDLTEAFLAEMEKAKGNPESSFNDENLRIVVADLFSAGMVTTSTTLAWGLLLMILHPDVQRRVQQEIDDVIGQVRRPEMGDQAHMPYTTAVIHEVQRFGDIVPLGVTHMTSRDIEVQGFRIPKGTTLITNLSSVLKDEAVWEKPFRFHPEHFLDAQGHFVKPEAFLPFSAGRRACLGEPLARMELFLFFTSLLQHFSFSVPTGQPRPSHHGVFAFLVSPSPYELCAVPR
Sequence of Cytochrome P450 3A4 (P08684 whole entry): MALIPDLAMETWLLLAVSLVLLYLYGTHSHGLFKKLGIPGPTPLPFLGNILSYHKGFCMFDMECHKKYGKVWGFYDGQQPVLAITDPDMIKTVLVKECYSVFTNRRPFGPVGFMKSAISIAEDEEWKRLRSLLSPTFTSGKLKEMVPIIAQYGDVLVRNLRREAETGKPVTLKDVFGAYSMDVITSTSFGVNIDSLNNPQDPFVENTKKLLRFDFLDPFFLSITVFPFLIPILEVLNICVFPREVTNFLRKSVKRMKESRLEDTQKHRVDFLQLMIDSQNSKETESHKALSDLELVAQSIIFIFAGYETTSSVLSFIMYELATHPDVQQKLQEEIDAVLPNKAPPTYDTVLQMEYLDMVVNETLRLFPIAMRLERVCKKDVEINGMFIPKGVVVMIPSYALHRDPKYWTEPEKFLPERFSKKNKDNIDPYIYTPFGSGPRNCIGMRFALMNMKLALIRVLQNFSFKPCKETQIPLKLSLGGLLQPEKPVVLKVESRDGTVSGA

In the case of `CC(C)(C)NCc1cc(Nc2ccnc3cc(Cl)ccc23)ccc1F`, the IC50 [1] is reported as 12.1 nM, the IC50 [2] is reported as 14.6 nM and the IC50 [3] is reported as 25.8 nM. For the same compound, the IC50 [4] was 17.3 nM, the IC50 [5] was 22.4 nM and the logP [6] was 4.74. The Activity [7] was 9.16 %ID, the Activity [8] was 8.06 %ID and the Drug uptake [9] was 12.44 %ID. For the same compound, the Activity [10] was 9.16%, the Drug uptake [11] was 3.97 %ID and the logP [12] was 5.15. The Activity [13] was 51.36%, the Drug uptake [14] was 1.48 %ID and the Drug uptake [15] was 6.57 %ID. The Drug uptake [16] was 1.17 %ID, the Activity [17] was 14.76% and the Activity [18] was 38.54%. It also gave an Activity [19] of 72.79%, an Activity [20] of 1.22% and an Activity [21] of 14.22%. The Activity [22] was 3.55%, the clearance [23] was 35 mL/min/kg and the bioavailability [24] was 37%. The bioavailability [25] was 100%, the half-life [26] was 420 min and the IC50 [27] was 8.8 µM. For the same compound, the IC50 [28] was 300 nM, the IC50 [29] was 52 µM and the IC50 [30] was 64 µM. The CC50 at 6 h [31] was 385 µM, the NOAEL [32] was 300 mg/kg and the NOAEL at 96 h [33] was 100 mg/kg. The Activity [34] was “Toxic”, the Activity [35] was “Toxic” and the logD [36] was 2.4. For the same compound, the IC50 [37] was 26.1 nM, the IC50 [38] was 29.2 nM and the ED50 [39] was 5.3 mg/kg. For the same compound, the ED90 [39] was 12.4 mg/kg, the log Ks [40] was 5.45 and the log Ks [41] was 5.68. For the same compound, the IC50 [42] was greater than 100 µM, the IC50 [43] was 22 nM and the Activity [44] was greater than 40 mg/kg.
